In patent US10844077B2, “Thiazolyl-containing compounds for treating proliferative diseases” (Dana-Farber Cancer Institute, Inc., priority 2014, dated 2020):

What was measured:
[1] = target: BTK (Homo sapiens (Human), UniProt Q06187); test: BTK inhibitory activity; type: biochemical
[2] = tested on: BCWM.1; test: CellTiter-Glo Luminescent cell viability assay; type: cell-based; details: cell survival, 72 hours
Protocol: (§1) The inhibitory activities of exemplary compounds described herein against select protein kinases and cells were determined. Cell survival following treatment of exemplary compounds described herein was assessed by CellTiter-Glo® Luminescent cell viability assay (Promega). The cells were seeded into 384 well plates with the EL406 Combination Washer Dispenser (BioTek Instruments, Inc.), and a series diluted exemplary compounds (20˜0.0006 μM) were injected into the culture media with the JANUS Automated Workstation (PerkinElmer Inc.). The cells were treated for 72 hours at 37° C. with 5% CO2. Luminescent measurement is performed using the 2104 Envision® Multilabel Reader (PerkinElmer Inc.). EC50 values were calculated with […] PRISM software.

[3] = tested on: HBL-1; test: CellTiter-Glo Luminescent cell viability assay; type: cell-based; details: cell survival, 72 hours
Protocol: as §1

[4] = tested on: MWCL-1; test: CellTiter-Glo Luminescent cell viability assay; type: cell-based; details: cell survival, 72 hours
Protocol: as §1

[5] = tested on: OCI-Ly19; test: CellTiter-Glo Luminescent cell viability assay; type: cell-based; details: cell survival, 72 hours
Protocol: as §1

[6] = tested on: Ramos; test: CellTiter-Glo Luminescent cell viability assay; type: cell-based; details: cell survival, 72 hours
Protocol: as §1

[7] = tested on: TMD-8; test: CellTiter-Glo Luminescent cell viability assay; type: cell-based; details: cell survival, 72 hours
Protocol: as §1

[8] = target: HCK (Homo sapiens (Human), UniProt P08631); test: HCK inhibitory activity; type: biochemical
[9] = tested on: OCI-Ly3; test: CellTiter-Glo Luminescent cell viability assay; type: cell-based; details: cell survival, 72 hours
Protocol: as §1

[10] = tested on: OCI-Ly7; test: CellTiter-Glo Luminescent cell viability assay; type: cell-based; details: cell survival, 72 hours
Protocol: as §1

[11] = tested on: OPM-2; test: CellTiter-Glo Luminescent cell viability assay; type: cell-based; details: Homo sapiens, cell survival, 72 hours
Protocol: as §1

[12] = tested on: RPMI-8226; test: CellTiter-Glo Luminescent cell viability assay; type: cell-based; details: Homo sapiens, cell survival, 72 hours
Protocol: as §1

HCK, sequence (P08631 whole entry): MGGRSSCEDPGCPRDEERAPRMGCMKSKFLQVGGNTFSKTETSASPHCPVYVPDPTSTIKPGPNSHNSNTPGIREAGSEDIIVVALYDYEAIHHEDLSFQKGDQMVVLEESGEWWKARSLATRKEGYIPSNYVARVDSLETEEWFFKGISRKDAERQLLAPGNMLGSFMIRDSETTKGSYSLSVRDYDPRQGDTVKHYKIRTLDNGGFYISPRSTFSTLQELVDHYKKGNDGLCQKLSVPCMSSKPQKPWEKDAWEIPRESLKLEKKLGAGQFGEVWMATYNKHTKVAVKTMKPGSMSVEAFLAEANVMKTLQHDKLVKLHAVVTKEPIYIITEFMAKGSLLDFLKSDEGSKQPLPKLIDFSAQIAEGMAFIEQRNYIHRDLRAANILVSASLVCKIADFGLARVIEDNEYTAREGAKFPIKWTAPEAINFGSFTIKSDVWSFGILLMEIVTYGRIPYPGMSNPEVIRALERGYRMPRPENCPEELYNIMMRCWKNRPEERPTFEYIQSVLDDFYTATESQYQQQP
BTK, sequence (Q06187 whole entry, looked up): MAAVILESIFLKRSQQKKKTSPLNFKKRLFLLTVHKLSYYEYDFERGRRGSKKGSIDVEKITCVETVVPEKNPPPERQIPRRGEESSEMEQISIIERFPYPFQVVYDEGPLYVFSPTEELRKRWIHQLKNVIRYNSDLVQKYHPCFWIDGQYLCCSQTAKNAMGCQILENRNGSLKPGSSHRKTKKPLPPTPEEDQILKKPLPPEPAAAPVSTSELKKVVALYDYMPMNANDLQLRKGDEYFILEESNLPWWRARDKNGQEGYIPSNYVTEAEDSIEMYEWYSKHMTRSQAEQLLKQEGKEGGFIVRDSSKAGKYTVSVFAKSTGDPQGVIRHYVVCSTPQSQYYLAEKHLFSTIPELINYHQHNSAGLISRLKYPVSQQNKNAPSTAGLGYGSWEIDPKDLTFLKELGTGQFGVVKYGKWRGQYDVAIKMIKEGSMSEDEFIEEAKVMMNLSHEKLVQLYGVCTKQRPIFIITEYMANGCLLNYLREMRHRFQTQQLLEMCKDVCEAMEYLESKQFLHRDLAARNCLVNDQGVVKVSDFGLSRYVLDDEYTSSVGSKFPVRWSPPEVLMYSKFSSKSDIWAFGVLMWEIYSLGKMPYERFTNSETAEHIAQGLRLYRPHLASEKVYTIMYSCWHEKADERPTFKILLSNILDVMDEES

For `C=CC(=O)N1CCC[C@H](Nc2nccc(Nc3nc4ccc(Oc5ccccc5)nc4s3)n2)C1` [III-3], the IC50 [1] was 19.4 nM, the EC50 [2] was 2710 nM and the EC50 [3] was 2960 nM. The EC50 [4] was 5750 nM, the EC50 [5] was 2500 nM and the EC50 [6] was 8460 nM. The EC50 [7] was 4130 nM.
With `C=CC(=O)N1CCC[C@@H](Nc2nccc(Nc3nc4ccc(Oc5ccccc5)nc4s3)n2)C1` [III-4] the IC50 [1] was 367 nM, the EC50 [2] was 808 nM and the EC50 [3] was 2550 nM. It also gave an EC50 [4] of 2160 nM, an EC50 [5] of 1170 nM and an EC50 [6] of 2190 nM. For the same compound, the EC50 [7] was 2120 nM.
With `CCC(=O)N1CC[C@H](Nc2nccc(Nc3ncc(C(=O)Nc4c(C)cccc4C)s3)n2)C1` [Compound I-9] the IC50 [1] was 0.5 nM, the IC50 [8] was < 0.495 nM and the EC50 [2] was 9.84 nM. For the same compound, the EC50 [3] was 220 nM, the EC50 [4] was 25 nM and the EC50 [5] was 10000 nM. For the same compound, the EC50 [9] was 14500 nM, the EC50 [6] was > 20000 nM and the EC50 [7] was 70.9 nM.
`C=CC(=O)N1CC[C@H](Nc2nccc(Nc3ncc(C(=O)Nc4c(C)cccc4C)s3)n2)C1` [Compound I-3] was tested, and the IC50 [1] was 0.6 nM, the EC50 [2] was 19.3 nM and the EC50 [3] was 669 nM. For the same compound, the EC50 [4] was 55.2 nM, the EC50 [5] was 13000 nM and the EC50 [9] was 39500 nM. For the same compound, the EC50 [10] was 370 nM, the EC50 [6] was > 20000 nM and the EC50 [7] was 158 nM.
For `C=CC(=O)N1CCC[C@@H](Nc2nccc(Nc3ncc(C(=O)Nc4c(C)cccc4C)s3)n2)C1` [Compound I-6], the IC50 [1] was 1.9 nM, the EC50 [2] was 69.6 nM and the EC50 [3] was 229 nM. It also gave an EC50 [4] of 93.7 nM, an EC50 [10] of 520 nM and an EC50 [7] of 80.2 nM.
For `C=CC(=O)N1CC[C@@H](Nc2nccc(Nc3nc4ccc(Oc5ccccc5)nc4s3)n2)C1` [III-2], the IC50 [1] was 281 nM, the EC50 [2] was 916 nM and the EC50 [3] was 2960 nM. For the same compound, the EC50 [4] was 1350 nM, the EC50 [5] was 1100 nM and the EC50 [6] was 2300 nM. It also gave an EC50 [7] of 2640 nM.
`C=CC(=O)N1CCCCC(Nc2nccc(Nc3ncc(C(=O)Nc4c(C)cccc4C)s3)n2)C1` (stereo not drawn) [Compound I-7] was tested, and the IC50 [1] was < 0.495 nM, the IC50 [8] was < 0.495 nM and the EC50 [2] was 22 nM. The EC50 [3] was 70 nM, the EC50 [4] was 19 nM and the EC50 [5] was 399 nM. It also gave an EC50 [6] of 133 nM and an EC50 [7] of 49 nM.
`C=CC(=O)N1CC[C@@H](Nc2nccc(Nc3ncc(C(=O)Nc4c(C)cccc4C)s3)n2)C1` [Compound I-4] showed an IC50 [1] of 1.38 nM, an EC50 [2] of 53 nM and an EC50 [3] of 449 nM. For the same compound, the EC50 [4] was 85 nM, the EC50 [5] was 4270 nM and the EC50 [6] was > 20000 nM. The EC50 [7] was 315 nM.
`C=CC(=O)N1CCCCC(Nc2nccc(Nc3ncc(C(=O)Nc4c(C)cccc4Cl)s3)n2)C1` (stereo not drawn) [Compound I-11] gave an IC50 [1] of 5.52 nM, an EC50 [2] of 129 nM and an EC50 [3] of 623 nM. For the same compound, the EC50 [4] was 245 nM, the EC50 [5] was 3680 nM and the EC50 [6] was 1580 nM. It also gave an EC50 [7] of 500 nM.
In the case of `Cc1nc(Nc2ncc(C(=O)Nc3c(C)cccc3Cl)s2)cc(N2CCN(CCO)CC2)n1` [Dasatinib, dasatinib, reference compound], the EC50 ([2]; BCWM1) is reported as 1.2 nM, the EC50 ([3]; HBL1) is reported as 190 nM and the EC50 [4] is reported as 7.41 nM. It also gave an EC50 ([5]; Homo sapiens, OCI-LY19) of 3860 nM, an EC50 ([9]; Homo sapiens, OCI-Ly3) of 8060 nM and an EC50 ([10]; Homo sapiens, OCI-Ly7) of 155 nM. It also gave an EC50 [11] of 7110 nM, an EC50 [12] of 5390 nM and an EC50 ([6]; Homo sapiens, Ramos) of 4560 nM. It also gave an EC50 ([7]; Homo sapiens, TMD8) of 18.7 nM.
For `C=CC(=O)N1CCCC(Cn2ccc(Nc3ncc(C(=O)Nc4c(C)cccc4Cl)s3)n2)C1` (stereo not drawn) [II-2], the IC50 [1] was < 0.495 nM, the EC50 [2] was 196 nM and the EC50 [3] was 1000 nM. The EC50 [4] was 166 nM, the EC50 [5] was 6540 nM and the EC50 [6] was > 20000 nM. For the same compound, the EC50 [7] was 929 nM.
Compound `C=CC(=O)N1CC[C@H](Nc2nc(CN3CCOCC3)cc(Nc3ncc(C(=O)Nc4c(C)cccc4Cl)s3)n2)C1` [Compound I-1] has an IC50 [1] of 1.61 nM, an EC50 [2] of 73.4 nM and an EC50 [3] of 522 nM. For the same compound, the EC50 [4] was 50 nM and the EC50 [7] was 301 nM.
`C=CC(=O)N1CC[C@H](Nc2nccc(Nc3ncc(C(=O)Nc4c(C)cccc4Cl)s3)n2)C1` [Compound I-10] was tested, and the IC50 [1] was 1.74 nM, the EC50 [2] was 170 nM and the EC50 [3] was 1640 nM. It also gave an EC50 [4] of 191 nM, an EC50 [5] of 5700 nM and an EC50 [6] of 12 nM. For the same compound, the EC50 [7] was 1010 nM.
With `C=CC(=O)N1CCCCC(Nc2nccc(Nc3nc4ccc(Oc5ccccc5)nc4s3)n2)C1` (stereo not drawn) [III-5] the IC50 [1] was 9.06 nM, the EC50 [2] was 1190 nM and the EC50 [3] was 896 nM. For the same compound, the EC50 [4] was 3370 nM, the EC50 [5] was 1330 nM and the EC50 [6] was 2720 nM. It also gave an EC50 [7] of 1230 nM.
`C=CC(=O)N1CC[C@H](Nc2nc(CN3CCOCC3)cc(Nc3ncc(C(=O)Nc4c(C)cccc4C)s3)n2)C1` [Compound I-2] was tested, and the IC50 [1] was 1.63 nM, the EC50 [2] was 41 nM and the EC50 [3] was 1670 nM. For the same compound, the EC50 [4] was 67 nM, the EC50 [5] was > 20000 nM and the EC50 [9] was > 20000 nM. For the same compound, the EC50 [6] was > 20000 nM and the EC50 [7] was 311 nM.
In the case of `c1ccc(Oc2ccc3nc(Nc4cnn(C5CCNCC5)c4)sc3n2)cc1` [III-9], the IC50 [1] is reported as 2660 nM, the EC50 [2] is reported as 8290 nM and the EC50 [3] is reported as > 20000 nM. For the same compound, the EC50 [4] was 16600 nM, the EC50 [5] was 7060 nM and the EC50 [6] was 11800 nM. The EC50 [7] was 18300 nM.
With `C=CC(=O)N1CCC(CNc2nccc(Nc3ncc(C(=O)Nc4c(C)cccc4C)s3)n2)C1` (stereo not drawn) [Compound I-8] the IC50 [1] was < 0.495 nM, the IC50 [8] was < 0.495 nM and the EC50 [2] was 75 nM. For the same compound, the EC50 [3] was 522 nM, the EC50 [4] was 103 nM and the EC50 [5] was 3770 nM. It also gave an EC50 [6] of 7970 nM and an EC50 [7] of 301 nM.
`C=CC(=O)N1CCC(n2cc(Nc3ncc(C(=O)Nc4c(C)cccc4Cl)s3)cn2)CC1` [II-3] was tested, and the IC50 [1] was 19.9 nM, the EC50 [2] was 690 nM and the EC50 [3] was 3650 nM. For the same compound, the EC50 [4] was 772 nM, the EC50 [5] was 9970 nM and the EC50 [6] was > 20000 nM. For the same compound, the EC50 [7] was 2540 nM.
`c1ccc(Oc2ccc3nc(Nc4cnn(C5CCOCC5)c4)sc3n2)cc1` [III-8] was tested, and the IC50 [1] was > 10000 nM, the IC50 [8] was > 10000 nM and the EC50 [2] was 7250 nM. For the same compound, the EC50 [3] was > 20000 nM, the EC50 [4] was > 20000 nM and the EC50 [5] was 12600 nM. For the same compound, the EC50 [6] was > 20000 nM and the EC50 [7] was 14600 nM.
`Cn1ccc(Nc2nc3ccc(Oc4ccccc4)nc3s2)n1` [III-6] showed an IC50 [1] of 2580 nM, an EC50 [2] of 270 nM and an EC50 [3] of 450 nM. It also gave an EC50 [4] of 2170 nM, an EC50 [5] of 321 nM and an EC50 [6] of 749 nM. For the same compound, the EC50 [7] was 467 nM.
For `Cn1cc(Nc2nc3ccc(Oc4ccccc4)nc3s2)cn1` [III-7], the IC50 [1] was > 10000 nM, the IC50 [8] was > 10000 nM and the EC50 [2] was > 20000 nM. The EC50 [3] was > 20000 nM, the EC50 [4] was > 20000 nM and the EC50 [5] was 9520 nM. The EC50 [6] was > 20000 nM and the EC50 [7] was > 20000 nM.
`C=CC(=O)N1CCCC(Nc2nc(CN3CCOCC3)cc(Nc3ncc(C(=O)Nc4c(C)cccc4C)s3)n2)C1` (stereo not drawn) [Compound I-12] was tested, and the EC50 [2] was 75.5 nM, the EC50 [3] was 1200 nM and the EC50 [4] was 317 nM. The EC50 [10] was 309 nM and the EC50 [7] was 453 nM.
For `C=CC(=O)N1CC[C@H](Nc2nccc(Nc3nc4ccc(Oc5ccccc5)nc4s3)n2)C1` [III-1], the IC50 [1] was 86.6 nM, the EC50 [2] was 1830 nM and the EC50 [3] was 3200 nM. For the same compound, the EC50 [4] was 4080 nM, the EC50 [5] was 1250 nM and the EC50 [6] was 3700 nM. The EC50 [7] was 3850 nM.
